# Measured values reported in patent US20020086895A1, “Methods of treating fungal infections” (priority 1985, published 2002).
# Like-named read-outs stand apart in the source and are kept apart here.
# How the values were obtained:
# [1] = system: Staphylococcus aureus KLE820; assay: Activity of selected aurones against Staphylococcus aureus KLE820; format: cell-based; conditions: read-out: % Inhibition of growth at 10 ug/ml
# From the text: Compounds described herein also have activity against bacteria.
# [2] = system: Candida albicans (strain ATCC #90028); assay: Inhibition of Candida spp. culture (XTT); format: cell-based; conditions: for C. albicans minimum inhibitory concentration (MIC) compared with reported ranges: assay validation; for MIC: Candida albicans, ATCC90028, C. albicans, XTT, 22 hours at 35° C., read-out: antifungal MIC
# Protocol: (§1) Candida albicans (strain ATCC #90028), Candida krusei (strain ATCC #90030), and Torulopsis (Candida) glabrata (strain ATCC #6258) were subcultured from cryopreserved stocks onto sabourand dextrose agar plates. Blastoconidia were suspended into RPMI-MOPS (media) and inoculated (500 cfu/well) into 96-well plates containing test compounds in a final volume of 100 μL/well. After 22 hours at 35° C., 25 μL of XTT (2,3-bis(2-methoxy-4-nitro-5-sulfophenyl)-5-[(phenylamino)carbonyl]-2H-tetrazolium hydroxide), (100 μg/mL) with PMS (phenazine methyl sulfate, 5 μM) were added to each well, followed by 2 hours of shaking. Growth was assessed spectrophotometrically by measuring the appearance of soluble formazan stain at 450 nm using an Emax microplate reader.
# [3] = system: nine isolates (Aspergillus and Candida); assay: Standard controls of the antifungal assays of Example 12; format: cell-based
# Protocol: (§2) Test compounds were tested against nine isolates in an eight-point dose response assay ranging from 50 μg/ml to 0.39 μg/ml. Aspergillus MIC's (minimum inhibitory concentrations) were scored visually after 48 and 72 hours at 37° C. […] Amphotericin B (2.5 μg/ml) and 5-flucytosine (2.0 μg ml) were standard controls for each antifungal assay. […] The results are shown below in Table 4, MIC values in μg/ml after 72 hours. HFF toxicity was analyzed after a 24 hour incubation at 37° C. (5% CO2). MTS/PMS was added, and the sample absorbance was read at 450 nm.
# [4] = system: Candida albicans strain #64, sensitive to fluconazole; assay: Fluconazole-sensitive candidiasis in mice; format: in vivo
# Protocol: Immunocompetent mice (ICR, Sprague-Dawley, Indianapolis, Ind.) were infected with a pathogenic strain (strain #64) of Candida albicans which is sensitive to fluconazole. […] […] […] In addition, the organ fungal load (in CFU) was measured at day 30.
# [5] = biological target: T1, chitin synthase III (CS III) (Candida albicans, UniProt P30573); assay: Inhibition of chitin synthase, CS III only; format: biochemical, C. albicans
# T1 construct: endogenous in cells
# T1 sequence (P30573 whole entry): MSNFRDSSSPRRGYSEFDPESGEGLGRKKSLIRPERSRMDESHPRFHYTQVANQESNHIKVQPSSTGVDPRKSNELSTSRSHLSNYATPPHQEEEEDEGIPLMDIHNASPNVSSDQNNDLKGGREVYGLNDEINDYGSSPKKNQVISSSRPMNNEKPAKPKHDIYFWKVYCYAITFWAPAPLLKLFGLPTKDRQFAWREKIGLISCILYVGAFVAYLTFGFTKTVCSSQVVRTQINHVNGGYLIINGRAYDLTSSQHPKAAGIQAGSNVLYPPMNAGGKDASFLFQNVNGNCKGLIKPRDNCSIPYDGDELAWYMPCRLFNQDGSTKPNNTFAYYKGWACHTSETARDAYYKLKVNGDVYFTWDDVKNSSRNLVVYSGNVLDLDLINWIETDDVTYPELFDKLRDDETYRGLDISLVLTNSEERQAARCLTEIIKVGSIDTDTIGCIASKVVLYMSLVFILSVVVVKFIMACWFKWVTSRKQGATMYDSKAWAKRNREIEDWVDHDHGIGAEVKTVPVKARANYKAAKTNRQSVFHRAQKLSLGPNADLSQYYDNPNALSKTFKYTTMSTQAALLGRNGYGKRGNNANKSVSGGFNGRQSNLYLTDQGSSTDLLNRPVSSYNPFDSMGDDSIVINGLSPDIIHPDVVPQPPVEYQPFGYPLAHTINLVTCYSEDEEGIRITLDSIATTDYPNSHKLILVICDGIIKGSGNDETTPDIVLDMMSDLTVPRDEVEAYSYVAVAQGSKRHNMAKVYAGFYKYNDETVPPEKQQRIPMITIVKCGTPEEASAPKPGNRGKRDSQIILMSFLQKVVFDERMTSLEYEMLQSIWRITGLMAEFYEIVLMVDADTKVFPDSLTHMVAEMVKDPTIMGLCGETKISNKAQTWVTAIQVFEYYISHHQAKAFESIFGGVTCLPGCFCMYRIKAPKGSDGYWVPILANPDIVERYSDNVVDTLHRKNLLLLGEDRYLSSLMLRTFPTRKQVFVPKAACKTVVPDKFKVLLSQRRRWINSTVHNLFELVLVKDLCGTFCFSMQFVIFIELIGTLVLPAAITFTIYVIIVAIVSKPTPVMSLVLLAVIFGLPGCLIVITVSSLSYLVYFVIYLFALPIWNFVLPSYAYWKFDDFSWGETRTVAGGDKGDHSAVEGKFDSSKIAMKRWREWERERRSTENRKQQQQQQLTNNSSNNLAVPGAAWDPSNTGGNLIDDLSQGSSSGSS
# Protocol: Plasma membrane was purified from C. albicans (ATCC #90028) according to Orlean, J. Biol. Chem. 262:5732-5-1987. To minimize proteolysis during plasma membrane preparation, 1% fetal calf serum was incorporated into the homogenization buffer. Plasma membrane was activated by trypsin (125 μg/mg protein) in the presence of 1.5 mM UDP-GLcNAc(c) at 25° C. for 5 minutes. The reaction was stopped by the addition of soybean trypsin inhibitor. The activated membranes (0.125 mg membrane protein/mL) were then assayed in a total of 50 μL reaction mixture containing 50 mM Tris-HCl (pH 8.0) 3 mM CoCl2, 40 mM GlcNAc, 4 mM ^14C-UDP-GlcNAc (specific: 0.25 mCi/mmol) (New England Nuclear Boston, Mass.) and plant extract (100 μg/mL). The incubation was carried out at 37° C. for 1 hour and terminated with the addition of trichloroacetic acid (10%). The reaction mixture was transferred to a pre-wetted glass fiber filter. The filter was washed with 4×200 μL of a 7:3 solution of 95% EtOH and 1 M acetic acid. The filter was dried under a heat lamp and counted in a Microbeta counter (Wallac, Gaithersburg, Md.) after the addition of 25 μL OPTIPHASE SUPERMIX™ (Wallac) scintillation fluid. Nikkomycin Z and Polyoxin D were used as positive controls (Calbiochem, San Diego, Calif.). Vehicle control was carried out with the same amount of DMSO (2%). […]
# C. albicans = assay: Inhibition of C. albicans with drug combinations; format: cell-based, Candida albicans
# Protocol: as §1
# Formula (V) was tested in combination with known antifungal agents amphotericin B and fluconazole. A 10 mg/ml stock solution of formula (V) was diluted in 100% DMSO and stored at −80° C. Fluconazole and Amphotericin B were similarly prepared and stored as a 8 mg/ml stock solution, and a 1.25 mg/ml stock solution, respectively. Each known antifungal agent was added (2 μl/well), then 2 μl/well of the formula (V) solution was added to the designated wells. The remainder of the experiment follows Example 21.
# [6] = system: Candida krusei (strain ATCC #90030); assay: Inhibition of Candida spp. culture (XTT); format: cell-based; conditions: Pichia kudriavzevii, ATCC90030, C. krusei, 22 hours at 35° C., read-out: antifungal MIC
# Protocol: as §1
# [7] = system: Torulopsis (Candida) glabrata (strain ATCC #6258); assay: Inhibition of Candida spp. culture (XTT); format: cell-based; conditions: T. (C.) glabrata, 22 hours at 35° C., read-out: antifungal MIC
# Protocol: as §1
# [8] = system: C. albicans UTR-14, fluconazole-resistant clinical isolate; assay: Fluconazole-resistant candidiasis in mice; format: in vivo
# [9] = system: chitin synthase II (CS II); assay: Inhibition of chitin synthase, CS II only; format: biochemical, C. albicans
# Protocol: Plasma membrane was purified from C. albicans (ATCC #90028) according to Orlean, J. Biol. Chem. 262:5732-5-1987. To minimize proteolysis during plasma membrane preparation, 1% fetal calf serum was incorporated into the homogenization buffer. Plasma membrane was activated by trypsin (125 μg/mg protein) in the presence of 1.5 mM UDP-GLcNAc(c) at 25° C. for 5 minutes. The reaction was stopped by the addition of soybean trypsin inhibitor. The activated membranes (0.125 mg membrane protein/mL) were […], 40 mM GlcNAc, 4 mM ^14C-UDP-GlcNAc (specific: 0.25 mCi/mmol) (New England Nuclear Boston, Mass.) and plant extract (100 μg/mL). The incubation was carried out at 37° C. for 1 hour and terminated with the addition of trichloroacetic acid (10%). The reaction mixture was transferred to a pre-wetted glass fiber filter. The filter was washed with 4×200 μL of a 7:3 solution of 95% EtOH and 1 M acetic acid. The filter was dried under a heat lamp and counted in a Microbeta counter (Wallac, Gaithersburg, Md.) after the addition of 25 μL OPTIPHASE SUPERMIX™ (Wallac) scintillation fluid. Nikkomycin Z and Polyoxin D were used as positive controls (Calbiochem, San Diego, Calif.). Vehicle control was carried out with the same amount of DMSO (2%).
# The SOP assay described above was modified to pH 7.5 and 5 mM MgCl2 (instead of CoCl2). […]
# A.funigatus 94-2766 = assay: Inhibition of fungal growth, MIC scored visually; format: cell-based; conditions: Aspergillus fumigatus, 942766
# Protocol: as §2
# A. funigatis ATCC8001 = assay: Inhibition of fungal growth, MIC scored visually; format: cell-based; conditions: Aspergillus fumigatus
# Protocol: as §2
# C. tropicalis ATCC75O = assay: Inhibition of fungal growth, MIC scored visually; format: cell-based; conditions: Candida tropicalis, 24 hour incubation at 35° C., read-out: Minimum Inhibitory Concentration
# Protocol: as §2
# A. niger = assay: Inhibition of fungal growth, MIC scored visually; format: cell-based; conditions: Aspergillus niger
# Protocol: as §2
# [10] = system: C. glabrata (Fluconazole resistant); assay: Inhibition of fungal growth, MIC scored visually; format: cell-based, Candida glabrata; conditions: Nakaseomyces glabratus; fluconazole resistant clinical isolate; 24 hour incubation at 35° C.; read-out: Minimum Inhibitory Concentration
# C. krusei ATCC6258 = assay: Inhibition of fungal growth, MIC scored visually; format: cell-based, Candida krusei; conditions: Pichia kudriavzevii, 24 hour incubation at 35° C., read-out: Minimum Inhibitory Concentration
# Protocol: as §2
# C. albicans ATCC90028 = assay: Inhibition of fungal growth, MIC scored visually; format: cell-based; conditions: Candida albicans, 24 hour incubation at 35° C., read-out: Minimum Inhibitory Concentration
# [11] = system: C. parapsilosis ATCC90018; assay: Inhibition of fungal growth, MIC scored visually; format: cell-based, Candida parapsilosis; conditions: Lodderomyces parapsilosis, 24 hour incubation at 35° C., read-out: Minimum Inhibitory Concentration
# Protocol: as §2
smiles,measurement,setting,value
COc1ccc(/C=C2\Oc3cc(O)c(C/C=C/c4ccccc4)c(O)c3C2=O)cc1,inhibition at 10 µg/mL,[1],83%
O=C1/C(=C/c2cc([N+](=O)[O-])ccc2O)Oc2cc(O)c(Cc3ccccc3)c(O)c21,inhibition at 10 µg/mL,[1],100%
O=C1/C(=C/c2c(Br)cc(Br)c(O)c2Br)Oc2cc(O)c(Cc3ccccc3)c(O)c21,inhibition at 10 µg/mL,[1],100%
CCCCCOc1ccc(/C=C2\Oc3cc(O)cc(O)c3C2=O)cc1,inhibition at 10 µg/mL,[1],98.6%
C=CCc1c(O)cc2c(c1O)C(=O)/C(=C/c1ccc(-c3ccccc3C(F)(F)F)o1)O2,inhibition at 10 µg/mL,[1],76.5%
Nc1nc(=O)[nH]cc1F [5-flucytosine],C. albicans minimum inhibitory concentration (MIC) compared with reported ranges,[2],within reported ranges
same,inhibition by standard control,[3]; 2.0 μg ml,total inhibition
C[C@@H]1[C@H](O)[C@@H](C)/C=C/C=C/C=C/C=C/C=C/C=C/C=C/[C@H](O[C@@H]2O[C@H](C)[C@@H](O)[C@H](N)[C@@H]2O)C[C@@H]2O[C@](O)(C[C@@H](O)C[C@@H](O)[C@H](O)CC[C@@H](O)C[C@@H](O)CC(=O)O[C@H]1C)C[C@H](O)[C@H]2C(=O)O [Amphotericin B],C. albicans minimum inhibitory concentration (MIC) compared with reported ranges,[2],within reported ranges
same,inhibition by standard control,[3]; 2.5 μg/ml,total inhibition
"CC(C)=CCc1c(O)cc2c(c1O)C(=O)C(=Cc1ccc(O)c(O)c1)O2 [Formula (V), 5-prenylaureusidin]",percent survival after 30 days,"[4]; 20 mg per kg body weight i.p., once a day for 10 days",about 70%
same,percent survival after 30 days,"[4]; 40 mg per kg body weight p.o., once a day for 10 days",about 60%
same,fungal load reduction in each organ,[4]; day 30,over 99%
same,IC50,[5],107 µM
same,combination effect with Amphotericin B,C. albicans; in combination with Amphotericin B,apparent synergy
same,combination effect with fluconazole,C. albicans; in combination with fluconazole,apparent additivity
same,MIC,[2],12.5 µg/mL
same,MIC,[6],6.25 µg/mL
same,MIC,[7],6.25 µg/mL
same,percent survival after 20 days,[8]; 40 mg per kg body weight p.o.,about 80%
same,IC50,[9],223 µM
CC(C)=CCc1c(O)cc2c(c1O)C(=O)/C(=C\c1cc(O)c(O)cc1-c1c(O)cc3c(c1O)C(=O)/C(=C\c1ccc(O)c(O)c1)O3)O2 [Formula (VI)],MIC,[2],25 µg/mL
same,MIC,[6],7.48 µg/mL
same,MIC,[7],1.74 µg/mL
CC(C)(C)c1ccc(/C=C2\Oc3cc(O)cc(O)c3C2=O)cc1 [Formula S02],MIC,"A.funigatus 94-2766; 94-2766, value in parentheses, not defined (scored after 48 and 72 hours), read-out: Minimum Inhibitory Concentration (value in parentheses)",> 50 µg/mL
same,MIC,"A.funigatus 94-2766; 94-2766 clinical isolate, value outside parentheses, read-out: Minimum Inhibitory Concentration",6.25 µg/mL
same,MIC,"A. funigatis ATCC8001; ATCC8001, ATCC8001 (X2), value outside parentheses, read-out: Minimum Inhibitory Concentration",6.25 µg/mL
same,MIC,"A. funigatis ATCC8001; ATCC8001, read-out: Minimum Inhibitory Concentration (value in parentheses), ATCC8001 (X2), value in parentheses, not defined (scored after 48 and 72 hours)",> 50 µg/mL
same,MIC,"A. funigatis ATCC8001; ATCC8001, read-out: Minimum Inhibitory Concentration, ATCC8001 (X1), 37° C.",12.5 µg/mL
same,MIC,C. tropicalis ATCC75O,12.5 µg/mL
same,MIC,"A. niger; clinical isolate, value outside parentheses, read-out: Minimum Inhibitory Concentration",> 50 µg/mL
same,MIC,"A. niger; value in parentheses, not defined (scored after 48 and 72 hours), read-out: Minimum Inhibitory Concentration (value in parentheses)",> 50 µg/mL
same,MIC,[10],0.39 µg/mL
same,MIC,C. krusei ATCC6258,6.25 µg/mL
same,MIC,C. albicans ATCC90028,12.5 µg/mL
same,MIC,[11],6.25 µg/mL
"C[C@@H]([C@H](N)C(=O)N[C@H](C(=O)O)[C@H]1O[C@@H](n2ccc(=O)[nH]c2=O)[C@H](O)[C@@H]1O)[C@H](O)c1ccc(O)cn1 [Nikkomycin Z, reference compound]",C. albicans minimum inhibitory concentration (MIC) compared with reported ranges,[2],within reported ranges
same,CS II remaining,"[9]; 10 μM Nikkomycin Z, pH 7.5, 5 mM MgCl2",75%
"OC(Cn1cncn1)(Cn1cncn1)c1ccc(F)cc1F [fluconazole, reference compound]",percent survival after 30 days,"[4]; 40 mg per kg body weight, twice a day",about 30%
same,C. albicans minimum inhibitory concentration (MIC) compared with reported ranges,[2],within reported ranges
same,percent survival after 20 days,[8]; 40 mg per kg body weight p.o. (twice daily),0%
